# In patent US9167816B2, “Antimicrobial composition for inhibiting microbial organisms and the method thereof” (National Taiwan University, priority 2013, dated 2015):
# No end group written: not given here.
# What was measured:
# B. cinerea B-134 = format: cell-based, Botrytis cinerea
# Method: (§1) (A) Bacterial growth inhibited by LsGRP1-derived peptides. The bacterial suspension with an OD600 of 0.15 was treated with 2.5 mg/ml peptide solution for 90 min, and the CFUs in each peptide sample were measured at 20-24 h post treatment by serial-dilution plating Inhibition of bacterial growth (%)=[(CFUs in water treatment−CFUs in peptide treatment)/CFUs in water treatment]×100%. (B) Spore germination of plant fungal pathogens inhibited by LsGRP1-derived peptides. Fungal spores with a concentration of 1×10^5 spores/ml were treated with 2.5 mg/ml peptide for 16-20 h before the observation of spore germination under light microscope. Inhibition of fungal spore germination (%)=[(Number of spores germinating in water−Number of spores germinating in peptide solution)/Number of spores germinating in water]×100%.
# (§2) The fungi used in this study included Alternaria brassicicola Ac1, Botrytis cinerea B-134, Botrytis elliptica B061, Colletotrichum acutatum HL1, and Colletotrichum gleosporioides MT1. […]
# (§3) The antibacterial and antifungal activities of these peptides were determined by measuring the inhibition rate of bacterial growth and fungal spore germination. […] After incubation for 20-24 h, the colony-forming units (CFUs) in each peptide-treated sample were quantified. […]
# [1] = tested on: P. syringae pv. syringae 61; format: cell-based, Pseudomonas syringae pv. syringae; conditions: Inhibition of bacterial growth (OD600 = 0.15)
# Method: as §1
# (§4) The bacterial strains used in this invention included Agrobacterium tumefaciens C58C^1 (Van Larebeke et al., 1974), Bacillus subtilis 28-4, Escherichia coli DH5α (Invitrogen), Dickeya chrysanthemi TA1, Pseudomonas syringae pv. syringae 61 (Huang et al., 1988), and Xanthomonas campestris XCP3. […]
# as §3
# A. brassicicola Ac1 = format: cell-based, Alternaria brassicicola; conditions: Inhibition of fungal spore germination at 5 × 10^4 spores/ml
# Method: as §1, §2, §3
# B. subtilis 28-4 = format: cell-based, Bacillus subtilis; conditions: Inhibition of bacterial growth (OD600 = 0.15)
# Method: as §1, §4, §3
# [2] = tested on: spores and hyphae of A. brassicicola Ac1, B. cinerea B-134, B. elliptica B061 and C. acutatum HL1; assay: Light microscopy of treated fungal spores and hyphae; format: cell-based; conditions: 50 μg/ml; spores 2 h, hyphae 16 h
# P. syringae = assay: Disease suppression assay, bacterial leaf spot in tomato; format: in vivo, Pseudomonas syringae on tomato leaves; conditions: 6 days after inoculation
# Method: (§5) The synthetic LsGRP1^C solutions of 2.5, 0.25 or 0.025 mg/ml were used. LsGRP1^C solution was dropped onto the surface of cabbage leaves. Meanwhile 5 μl spore suspension of A. brassicicola (2×10^5 conidia/ml), a fungal pathogen of cabbage black spot, was mixed with LsGRP1^C solution. In addition, fungal spore suspension was deposited before or after LsGRP1^C application. On the other hand, synthetic LsGRP1^C solution was dropped onto strawberry flowers, and then mixed with spore suspension of B. cinerea (2×10^5 conidia/ml). Similarly, synthetic LsGRP1^C solution was dropped onto tomato leaves, and then mixed with bacterial suspension of P. syringae (10^7 CFU/ml). Sterile water was used instead of LsGRP1^C solution as a control. Lesion development was examined visually.
# LsGRP1^C solution (10 μl each) was dropped onto wounded tissues of tomato leaves, mixed with 10 μl bacterial suspension (10^7 CFU/ml) of pathogenic P. syringae, and then lesion development was examined 6 days after bacterial inoculation.
# [3] = tested on: all assayed bacterial species (six bacterial species); format: cell-based
# Method: as §1, §4, §3
# [4] = tested on: spores and hyphae of A. brassicicola Ac1, B. cinerea B-134, B. elliptica B061 and C. acutatum HL1; assay: DAPI staining of fungal spores and hyphae (chromatin condensation); format: cell-based; conditions: 50 μg/ml; spores 2 h, hyphae 16 h
# Method: (§6) The fungal spores (A) and hyphae (B) were treated with 50 μg/ml LsGRP1^C for 2 h and 16 h, respectively. Then membrane permeability, chromatin condensation and reactive oxygen species accumulation of treated spores and hyphae were assayed by staining with SYTOX Green, DAPI and H2DCFDA, respectively. Sterile deionized water was used instead of LsGRP1^C as a control. Bar=20 μm (A) or 50 μm (B).
# Fungal spore and hyphae were treated with 50 μg/ml peptide solution for 2 h and 16 h, respectively. Then the fungal cells were stained with 4′,6′-diamidino-2-phenylindole (DAPI) at a final concentration of 1 μg/ml in the dark for 10 min before observation under Leica DMIL florescent microscope equipped with a Leica A filter set (BP340-380 nm, DM 400 nm, LP425 nm). Sterile deionized water was used instead of the peptide solution as a control.
# X. campestris XCP3 = format: cell-based, Xanthomonas campestris
# Method: as §1, §4, §3
# D. chrysanthemi TA1 = format: cell-based, Dickeya chrysanthemi; conditions: 2500 μg/ml peptide, 90 min, CFUs at 20-24 h
# Method: as §1, §4, §3
# E. coli DH5α = format: cell-based, Escherichia coli; conditions: Inhibition of bacterial growth (OD600 = 0.15)
# Method: as §1, §4, §3
# A. tumefaciens C58C^1 = format: cell-based, Agrobacterium tumefaciens
# Method: as §1, §4, §3
# assayed fungal species = assay: Growth inhibition assay, fungal spore germination, statements on the assayed fungal species; format: cell-based
# Method: as §1, §2, §3
# A. brassicicola = assay: Disease suppression assay, cabbage black spot; format: in vivo, Alternaria brassicicola on cabbage leaves; conditions: 7 days after inoculation
# Method: as §5
# Fungal inoculation was two days (−2) or one day (−1) before treatment besides at same time of the treatment. Fungal inoculation was also performed two day (2) or one day (1) after treatment.
# B. cinerea = assay: Disease suppression assay, gray mold; format: in vivo, Botrytis cinerea on strawberry and orchid flowers; conditions: different concentrations
# Method: as §5
# Synthetic LsGRP1^C solution (1 μl each) was dropped onto strawberry flowers, then mixed with 1 μl spore suspension of B. cinerea. […] LsGRP1^C solution (5 μl each) was dropped onto orchid flowers, then mixed with 5 μl spore suspension of B. cinerea.
# B. elliptica B061 = format: cell-based, Botrytis elliptica; conditions: Inhibition of fungal spore germination at 5 × 10^4 spores/ml
# Method: as §1, with “Fungal spores with a concentration of 1×10^5 spores/ml were treated with 2.5 mg/ml peptide for 16-20 h before the observation of spore germination under light microscope.” left out
# as §2, §3
# B. elliptica = assay: H2DCFDA staining (reactive oxygen species accumulation), non-germinating spores; format: cell-based, Botrytis elliptica; conditions: 50 μg/ml, 2 h
# Method: as §6
# (§7) Fungal spore and hyphae were treated with 50 μg/ml peptide solution for 2 h and 16 h, respectively. Then the fungal cells were stained with 10 μM 2′,7′-dichlorodihydrofluorescein diacetate (H2DCFDA) in the dark for 60 min before observation under Leica DMIL florescent microscope equipped with a Chroma 41012 filter set. Sterile deionized water was used instead of peptide solution as a control.
# C. acutatum HL1 = format: cell-based, Colletotrichum acutatum; conditions: Inhibition of fungal spore germination at 5 × 10^4 spores/ml
# Method: as §1, with “Fungal spores with a concentration of 1×10^5 spores/ml were treated with 2.5 mg/ml peptide for 16-20 h before the observation of spore germination under light microscope.” left out
# as §2, §3
# C. gleosporioides MT1 = format: cell-based, Colletotrichum gleosporioides; conditions: 2.5 mg/ml peptide, 16-20 h, 1×10^5 spores/ml
# Method: as §1, §2, §3
# [5] = tested on: A. brassicicola Ac1, B. cinerea B-134, B. elliptica B061 and C. acutatum HL1; assay: H2DCFDA staining (reactive oxygen species accumulation), germinating spores; format: cell-based; conditions: 50 μg/ml
# Method: as §6, §7
# [6] = tested on: assayed microbes (bacterial and fungal species); format: cell-based
# Method: The antibacterial and antifungal activities of these peptides were determined by measuring the inhibition rate of bacterial growth and fungal spore germination. Bacterial suspensions with an OD600 at 0.15 were treated with peptide solution for 90 min, then serially diluted and plated on LB media. After incubation for 20-24 h, the colony-forming units (CFUs) in each peptide-treated sample were quantified. The inhibition of bacterial growth (%)=[(CFUs in water treatment−CFUs in peptide treatment)/CFUs in water treatment]×100%. On the other hand, fungal spore suspensions of 1×10^5 spores/ml were treated with peptide solutions for 16-20 h, and then the spore germinations were examined under microscope. The germ tube greater than two times of spore length was considered germinated Inhibition of fungal spore germination (%)=[(Number of the spores germinating in water−Number of the spores germinating in peptide solution)/Number of the spores germinating in water]×100%. Sterile deionized water replaced the peptide solution as a control treatment. All assays were performed in triplicate. Based on the data, the concentrations of peptide for 50% growth inhibition (IC50) of each microbe were determined.
# According to the IC50 values of LsGRP1^C on different bacterial and fungal species, the antimicrobial potency of LsGRP1^C was verified.
# [7] = 2500 μg/ml peptide, 90 min, CFUs at 20-24 h
# [8] = Inhibition of bacterial growth (OD600 = 0.15)
sequence,measurement,setting,value
GRELAEETKENTEKRATEAGVADQKY [LsGRP1^N],Inhibition of fungal spore germination,"B. cinerea B-134; 2.5 mg/ml peptide, 16-20 h, 1×10^5 spores/ml",not affected
same,IC50,B. cinerea B-134; Inhibition of fungal spore germination at 5 × 10^4 spores/ml,58.26 µg/mL
same,IC50,[1],20.63 µg/mL
same,IC50,A. brassicicola Ac1,54.80 µg/mL
same,IC50,B. subtilis 28-4,23.32 µg/mL
same,morphology of spores and hyphae under light microscope,[2],abnormal blebbing and shrinkage
same,lesion development of bacterial leaf spot in tomato,P. syringae; 0.025 mg/ml,could inhibit lesion development
same,lesion development of bacterial leaf spot in tomato,P. syringae; 0.25 mg/ml,could inhibit lesion development
same,Inhibition of bacterial growth on all assayed bacterial species,"[3]; 2500 μg/ml, 90 min, CFUs at 20-24 h, all six species",more than 99.5%
same,IC50 on all assayed bacterial species except A. tumefaciens C58C^1,[3]; summary bound of Table 1,lower than 32.19 μg/ml
same,"DAPI staining, nuclear chromatin condensation",[4],nuclear chromatin condensation
same,Inhibition of bacterial growth,X. campestris XCP3; [7],69.6%
same,IC50,X. campestris XCP3; [8],32.19 µg/mL
same,Inhibition of bacterial growth,D. chrysanthemi TA1,over 98.5%
same,IC50,E. coli DH5α,9.67 µg/mL
same,Inhibition of bacterial growth,A. tumefaciens C58C^1; [7],over 98.5%
same,IC50,A. tumefaciens C58C^1; [8],71.79 µg/mL
same,"Inhibition of fungal spore germination, fungi other than B. elliptica B061","assayed fungal species; 2.5 mg/ml peptide, 16-20 h, with the exception of B. elliptica B061",did not inhibit spore germination
same,IC50 on the assayed fungal species except B. elliptica,assayed fungal species; summary bound of Table 1,below 58.26 μg/ml
same,suppression of lesion development of cabbage black spot,"A. brassicicola; 0.025 mg/ml, fungal inoculation 2 days before treatment",did not occur
same,lesion development of cabbage black spot,"A. brassicicola; 0.25 mg/ml, treatment at same time or 1-2 day before/after inoculation",could be inhibited
same,lesion development of orchid gray mold,"B. cinerea; orchid flowers, 9 days after inoculation",could be suppressed
same,lesion development of strawberry gray mold,"B. cinerea; strawberry flowers, 3 days after inoculation",could be suppressed
same,IC50,B. elliptica B061,86.13 µg/mL
same,ROS accumulation (H2DCFDA) in non-germinating spores,B. elliptica,present
same,IC50,C. acutatum HL1,17.39 µg/mL
same,Inhibition of fungal spore germination,C. gleosporioides MT1,not affected
same,ROS accumulation (H2DCFDA) in germinating spores,[5],visualized
same,IC50 on all assayed microbes,[6],below 86.13 μg/ml
